The values below come from patent publication US20050276838A1, “Composition and method for viral inhibition” (priority 2003, published 2005).

The test system of series [1] is Human Rotavirus strain Wa. The series is described as follows: Virus Inhibition Assay: MTT viability of MA-104 cells infected with Rotavirus in the presence of test compound. The format is cell-based. As to conditions: for Fate of MA-104 cells treated with virus and compound (MTT metabolism assay): in the presence of virus, Table 2; for MA-104 Cell Viability After Exposure to Test Compound with Rotavirus, (+) Virus: percent of control without virus or compound added, MTT after three days, five wells, compound concentration not given; for MA-104 Infection with Lactulose (Mean OD): MTT absorbance 570 nm, 3 days, mean ± sd, triplicate. Here is the method:
(§1) MA-104 cells of epithelial morphology were obtained from American Type Culture Collection and were originally derived from Rhesus monkey embryonic kidney. The cells were cultured at 37° C. in a humidified incubator and in an atmosphere of 5% CO2, in Minimal Essential Medium with Earle's balanced salt solution (2 mM glutamine, 1 mM sodium pyruvate, 0.1 mM non-essential amino acids and 1.5 g/L sodium bicarbonate) supplemented with 10% fetal bovine serum from Hyclone, Logan, Utah. The cells were passaged twice a week at a split ratio of 1:4.
Human Rotavirus strain Wa was obtained from the American Type Culture Collection. A virus stock was diluted 1:5 in media, aliquoted to 0.2 mL per vial and stored at approximately −80° C. The human Rotavirus strain, Wa (TC adapted) (Catalog No. VR-2018), originally isolated from a diarrheic stool from a human patient (Wyatt et al., Science 207: 189-191, 1980; U.S. Pat. No. 4,341,870), is Serotype 1 (G1) for VP7.
(§2) MTT Viability Assays were conducted in a Promega CellTiter 96® Non-Radioactive Cell Kit (Cat # G400) obtained from Promega, Madison, Wis. and used according to manufacturer's instructions.
(§3) Test compounds were prepared by dissolving each compound at 20-μg/mL final concentration in incomplete MA-104 media (Minimal Essential Medium with Earle's balanced salt solution). The compounds were sterilized by filtration through a 0.45-micron filter. The filter-sterilized stock was stored frozen at less than −20° C.
(§4) Virus Inhibition Assay: Virus strain Wa (1:2 dilution from stock) was activated in the presence of 5 μg/mL trypsin and incubated with 1, 10 or 100 μg/mL test compound in serum-free medium at 37° C. for 30 minutes. The activated virus was then diluted 1:5 in serum-free medium containing test compound at the same concentration (to bring the trypsin concentration to 1 μg/mL), added to MA-104 cells, and serially diluted on microtiter plates (5-fold series). The diluent contained 1 μg/mL trypsin and the indicated amount of test compound. After the virus was adsorbed at 37° C. for 1 hour, the virus innoculum was removed, and the media was replaced with serum-free medium containing 1 μg/mL trypsin and the indicated amount of test compound. Cultures were incubated at 37° C. for 3 days, and then cell viability was assessed with the Promega MTT assay following manufacturer's instructions. Each plate contained a dilution series of virus not treated with test compound and each plate contained cells exposed to test compound without virus. All samples were tested in triplicate. Absorbance at 570 nm was determined on a SpectraMax microplate reader (Molecular Devices) equipped with SoftMax Pro (v 3.1.2) data analysis software. The mean absorbance of triplicate determinations, the standard deviation, and the % CV (standard deviation/mean* 100) were calculated. The Q test was used to remove outliers (Anderson, Robert L. 1987 in Practical Statistics for Analytical Chemists, page 31-33, Table 7, Appendix D). Data were fit to a 4-parameter curve using SoftMax Pro software. The curve equation is y=((A−D)/(1+(x/C)^B))[…] which defines a sigmoid shaped curve; A is the lower asymptote as X approaches zero; D is the upper plateau as X approaches infinity; B is the slope in the linear portion of the curve; and C is the ED50.
(§5) Test compound and activated Rotavirus were diluted in serum free medium and added to five wells of MA-104 cells. Another 5 wells on the same microtiter plate were exposed to test compound in serum free medium containing trypsin. After three days incubation, cell viability was assessed with the MTT metabolism assay. Data are expressed as percent of control without virus or compound added.

The next series deals with MA-104 cells. The format is cell-based, Rhesus monkey. Here is the method:
as §1, §2, §3, §4, §5

For series [2], the system named is Human Rotavirus strain Wa. As to conditions: previous results referred to in the text; cited from earlier work.

Read-outs that look alike come from different tables or passages of the source.

arabinogalactan: in series [1], the “Fate of MA-104 cells treated with virus and compound (MTT metabolism assay)” value (“Fate of MA-104 cells treated” below) is on record as “significant cell kill due to virus infection”; the “MA-104 Cell Viability After Exposure to Test Compound with Rotavirus, (+) Virus” value (from here on “MA-104 Cell Viability After Exposure … (+) Virus”) is 19%. In addition, in the series on MA-104 cells, the “MA-104 Cell Viability After Exposure to Test Compound without Rotavirus, (−) Virus” value is on record as 102%.

For Sialyllactose, in series [1], the “Fate of MA-104 cells treated” value is recorded as “significant cell kill due to virus infection”; the “MA-104 Cell Viability After Exposure … (+) Virus” value is 17%. In the series on MA-104 cells, the “MA-104 Cell Viability After Exposure to Test Compound without Rotavirus, (−) Virus” value is given as 100%.

In the case of galactooligosaccharide, the “MA-104 Cell Viability After Exposure to Test Compound without Rotavirus, (−) Virus” value with MA-104 cells came to 116%.

With `OC[C@H]1O[C@@H](O[C@@H]2[C@@H](CO)O[C@](O)(CO)[C@H]2O)[C@H](O)[C@@H](O)[C@H]1O` [Lactulose, 4-O-β-D-galactopyranosil-D-fructofuranose], the “MA-104 Infection with Lactulose (Mean OD)” value (shortened to “MA-104 Infection”) in series [1] (Lactulose 1 μg/mL, virus (diln)-1 10) is given as 0.072 ± 0.007; in series [1] (Lactulose 1 μg/mL, virus (diln)-1 50) it was 0.132 ± 0.010; in series [1] (Lactulose 1 μg/mL, virus (diln)-1 250) it was 0.428 ± 0.092; in series [1] (Lactulose 1 μg/mL, virus (diln)-1 1250), 0.756 ± 0.036; in series [1] (Lactulose 1 μg/mL, virus (diln)-1 6250), 0.743 ± 0.064; in series [1] (Lactulose 1 μg/mL, virus (diln)-1 31250), 0.782 ± 0.049. Further, the “MA-104 Infection” value in series [1] (Lactulose 1 μg/mL, virus (diln)-1 156250) turned out to be 0.804 ± 0.031; in series [1] (Lactulose 10 μg/mL, virus (diln)-1 10), 0.087 ± 0.002; in series [1] (Lactulose 10 μg/mL, virus (diln)-1 50) it was 0.315 ± 0.168; in series [1] (Lactulose 10 μg/mL, virus (diln)-1 250), 0.541 ± 0.330; in series [1] (Lactulose 10 μg/mL, virus (diln)-1 1250), 0.869 ± 0.088; in series [1] (Lactulose 10 μg/mL, virus (diln)-1 6250) it was 0.808 ± 0.085. The “MA-104 Infection” value came out at 0.820 ± 0.082 in series [1] (Lactulose 10 μg/mL, virus (diln)-1 31250); 0.844 ± 0.030 in series [1] (Lactulose 10 μg/mL, virus (diln)-1 156250); 0.133 ± 0.045 in series [1] (Lactulose 100 μg/mL, virus (diln)-1 10); 0.849 ± 0.061 in series [1] (Lactulose 100 μg/mL, virus (diln)-1 50); 0.906 ± 0.081 in series [1] (Lactulose 100 μg/mL, virus (diln)-1 250); 0.971 ± 0.060 in series [1] (Lactulose 100 μg/mL, virus (diln)-1 1250). Further, the “MA-104 Infection” value in series [1] (Lactulose 100 μg/mL, virus (diln)-1 6250) turned out to be 1.012 ± 0.153; in series [1] (Lactulose 100 μg/mL, virus (diln)-1 31250) it was 0.951 ± 0.038; in series [1] (Lactulose 100 μg/mL, virus (diln)-1 156250), 0.942 ± 0.040. Also, in series [1] (MA-104 cells infected with Rotavirus, lactulose 1, 10, 100 μg/mL), the “Protection of MA-104 cells from virus killing” value is reported as “protected MA-104 cells from virus killing in a dose dependent manner”. Besides, the “Fate of MA-104 cells treated” value in series [1] is on record as “remained viable”. Besides, the “MA-104 Cell Viability After Exposure … (+) Virus” value in series [1] worked out at 119%. For the same compound, the “MA-104 Cell Viability After Exposure to Test Compound without Rotavirus, (−) Virus” value with MA-104 cells (Rhesus monkey, 3 days) was 134%. Besides, the “MA-104 cells, no virus (Mean OD)” value was found to be 0.372 ± 0.093 in the series with MA-104 cells (Rhesus monkey, 3 days, 1 μg/mL); 0.419 ± 0.070 with MA-104 cells (Rhesus monkey, 3 days, 10 μg/mL); 0.612 ± 0.192 in the series with MA-104 cells (Rhesus monkey, 3 days, 100 μg/mL).

Consider kappa-carageenen [Kappa Carageenen], for which, in series [1], the “Fate of MA-104 cells treated” value was “remained viable”; the “MA-104 Cell Viability After Exposure … (+) Virus” value is recorded as 119%. The “MA-104 Cell Viability After Exposure to Test Compound without Rotavirus, (−) Virus” value in the series on MA-104 cells amounted to 112%. Also, the “Inhibition of Rotavirus according to previous results / previous data” value in series [2] was “inhibits Rotavirus infection”.
